Reference: US12714698B2, “Compositions and methods for treating or preventing dermal disorders” (Drexel University, priority 2015, dated 2026)
Like-named read-outs stand apart in the source and are kept apart here.

Key:
[1] = test system: ribosomal S6 protein and MDM2; experiment: Immunoblot of ribosomal S6 protein and MDM2 phosphorylation (mTORC1/p70S6K signaling); assay type: cell-based, human
[2] = test system: ribosomal S6 protein and MDM2; experiment: as above; assay type: cell-based, human; remark: listed apart in the source
Experimental: (§1) Cell culture experiments utilizing NRTIs were of the following design. Cultures of either human lung or cardiac fibroblasts were cultivated according to standard culture protocols for these cells (Cristofalo, et al., Journal of Tissue Culture Methods 1980, 6:117-121). Parallel sets of cultures were maintained in normal growth media or in normal growth media with the addition of 1 nM rapamycin. Cultures were maintained with 1 nM rapamycin (Enzo Biologicals) for two weeks before exposure to NRTIs. Cell cultures were exposed to NRTIs at indicated concentrations in individual experiments (generally 10-20 μg/ml) for 7 days, with a change of media and fresh NRTIs at day 4. Mitochondrial measurements, bioanalyzer measurements, immunoblotting for protein expression and phosphorylation status, and assays for senescence were performed at the end of this 7-day period.
(§2) Cell culture reagents were from Cellgro, unless indicated. WI-38 fetal-lung primary human fibroblasts or human cardiac fibroblasts were grown in MEM supplemented with 10% fetal bovine serum, 1% L-glutamine, MEM vitamins, and MEM non-essential amino acids. Cells were maintained in a 37° C. in 5% CO2 incubator. For treatment studies, cells were treated with 1 nM rapamycin (Enzo Biologicals) for two weeks before treatment with NRTIs. Cells were maintained by trypsinization and reseeding at a cell density of 1×10^4/cm^2 every 7 to 10 days. Emtricitabine (FTC) and tenofovir disoproxil fumarate (TDF) were kindly provided by the NIH AIDS Research & Reference Reagent program. During the 7-day exposure to the NRTIs, the pharmacologic inhibitors PD98059 (10 μM, Santa Cruz Biotechnologies), BI-D1870, GW5074, and SB203580 (10 μM, Enzo Biologicals) were added to the culture medium either during the final 48 hours or for the final 2 hours depending upon the experiment. During the 7-day exposure to NRTIs, Trolox (500 μM) and N-acetylcysteine (100 μM, Acros Organics) were added every other day. Mito-Q (20 nM) and TPP (20 nM) were kindly provided by Dr. Brett Kaufmann at the University of Pennsylvania School of Veterinary Medicine. Vector and mt-catalase adenoviruses (MOI's 25, 50, and 75) were purchased from Gene Transfer Vector Core from the University of Iowa.
Cell protein extracts were prepared by extracting with radioimmunoprecipitation assay (RIPA) buffer containing a protease inhibitor cocktail (Sigma-Aldrich) and phosphatase inhibitors, NaF and sodium orthovanadate. Protein concentration was quantified using a bicinchoninic acid (BCA) assay (Pierce Biotechnology). Western blot analysis was performed using 15 to 30 μg of protein extracts that were run on SDS-PAGE and transferred onto nitrocellulose (Biorad) membranes. Blots were incubated with antibodies specific for: beta-actin (Sigma-Aldrich), TFAm, parkin, p16, phospho(S82)HSP27, HSP27 (Santa Cruz Biotechnologies), p53, 21, catalase, MDM2 (EMD Millipore), VDAC, phospho(S235/236)-ribosomal protein S6, ribosomal protein S6, phospho(S166)-MDM2, phospho(5473)-AKT, AKT, beta-tubulin (Cell Signaling), p62 (Enzo Biologicals), IL-6 (NeoBiolab), lamin B1, PINK1, and Mitoprofile Total OXPHOS Cocktail (complex I-NDUFB8 subunit, CII-SDHB subunit, […]2 subunit, and CIV-mitochondrial COX1 subunit) (Abcam) according to manufacturers' instructions. Western blots were visualized using IRDye 680 and 800 LI-COR secondary antibodies on a LI-COR Odyssey using LI-COR Odyssey software version 3.0 (LI-COR Biosciences). For co-immunoprecipitation, cell protein extracts were prepared in HNTG buffer containing a protease inhibitor cocktail and quantified using BCA assay. Protein extracts at the concentration of 0.5 mg were pre-cleared with protein A/G beads (Santa Cruz Biologicals) for 30 minutes. After centrifugation at 2,000 rpm for 5 minutes at 4° C., the supernatant was incubated with the primary antibody at manufacturer's recommended concentration overnight at 4° C. An IgG antibody (Cell Signaling) was used as a non-specific control.

[3] = test system: human cardiac fibroblasts; experiment: Mitochondrial membrane potential, mass, superoxide and total ROS by flow cytometry; assay type: cell-based; conditions: control cultures (no rapamycin) treated with scavenger during NRTI exposure
Experimental: as §1, §2
Mitochondrial membrane potential was detected by incubating cells with 25 nM TMRE (Molecular Probes). Mitochondrial mass was evaluated by incubating the cells with 100 nM Mitotracker Green FM (Molecular Probes). Mitochondrial superoxide anion levels were detected by incubating the cells with 5 μM MitoSox Red (Molecular Probes). Total cellular levels of ROS were detected by incubating the cells with 10 μM 2′,7′-dichlorofluoroscein diacetate (DCF-DA; Sigma-Aldrich) in 1% fetal bovine serumsupplemented MEM and washing twice with Krebs Ringer phosphate glucose buffer (145 mM NaCl, 5.7 mM NaH2PO4, 4.86 mM KCL, 0.54 mM CaCl2), 1.22 mM MgSO4, and 5.5 mM glucose) following the incubation period. For the aforementioned assessments, incubation was performed at 37° C. in 5% CO2 for 30 minutes and cells were harvested in 2.5% trypsin-EDTA with serum-containing medium. Cells were immediately analyzed with a Guava EasyCyte Mini employing the Guava Express Plus program (Guava Technologies).

[4] = test system: human cardiac fibroblasts; experiment: Immunoblot of senescence markers (p53, p21, p16, lamin B1, IL-6); assay type: cell-based; conditions: ROS-reducing intervention during NRTI exposure, no rapamycin
Experimental: as §1, §2
Cell protein extracts were prepared by extracting with radioimmunoprecipitation assay (RIPA) buffer containing a protease inhibitor cocktail (Sigma-Aldrich) and phosphatase inhibitors, NaF and sodium orthovanadate. Protein concentration was quantified using a bicinchoninic acid (BCA) assay (Pierce Biotechnology). […] For co-immunoprecipitation, cell protein extracts were prepared in HNTG buffer containing a protease inhibitor cocktail and quantified using BCA assay. […]

[5] = test system: human cardiac fibroblasts; experiment: Mitochondrial respiration, Seahorse XF24 Bioanalyzer; assay type: cell-based; conditions: mito-Q during NRTI exposure
Experimental: Cell culture experiments utilizing NRTIs were of the following design. Cultures of either human lung or cardiac fibroblasts were cultivated according to standard culture protocols for these cells (Cristofalo, et al., Journal of Tissue Culture Methods 1980, 6:117-121). Parallel sets of cultures were maintained in normal growth media or in normal growth media with the addition of 1 nM rapamycin. Cultures were maintained with 1 nM rapamycin (Enzo Biologicals) for two weeks before exposure to NRTIs. […] Mitochondrial measurements, bioanalyzer measurements, immunoblotting for protein expression and phosphorylation status, and assays for senescence were performed at the end of this 7-day period. Mitochondrial function was measured using the XF cell mito stress test kit on a Seahorse XF24 Bioanalyzer (Seahorse Bioscience). Cells were seeded at a density of 15,000 cells per well in an XF24 microplate. Following acquisition, results were normalized based upon 10^6 cells counted using a Guava EasyCyte Mini (Millipore), where applicable. […] Respiration rates and proton leak were assessed as outlined in published methods (Hill, et al., Biological chemistry 2012, 393:1485-1512). Mitochondrial respiration was calculated based upon oxygen consumption rate measurements in triplicates from cells seeded in at least quadruplicates. Basal respiration represents the initial oxygen consumption rate measurements and maximal respiration represents the oxygen consumption rate measurements following FCCP addition. ATP-linked respiration is represented as the oligomycin-sensitive oxygen change to basal oxygen consumption rate. Proton leak represents the oligmycin insensitive oxygen consumption rate. […] All data was normalized to cell number by counting cells in each well at the completion of the mitochondrial assessments.

[6] = test system: human cardiac fibroblasts; experiment: Senescence-associated beta-galactosidase detection; assay type: cell-based; conditions: ROS-reducing intervention during NRTI exposure, no rapamycin
Experimental: as §1
Assessment of SA-β-gal activity was performed by plating cells following respective treatments at low density (0.5×10^4/cm^2) to prevent false positive staining known to occur in high density cultures. […] Following incubation, cells were washed three times with PBS and at least 500 cells were counted for each sample in triplicates. Positive cells (blue cells) were expressed as a percentage of total cells.

[7] = test system: human fibroblasts; experiment: Ethidium bromide mitochondrial stress in human fibroblasts; conditions: exposure to ethidium bromide
Excerpt: Human fibroblasts were exposed to ethidium bromide for 7 days and cell viability measured at that time.

[8] = replicative senescent cardiac fibroblasts
[9] = agent added to NRTI-exposed cardiac fibroblasts
[10] = serum-free 48 hours, exposure 2 hours, 1 to 400 μM

CC(C)CCN1c2nc(Nc3cc(F)c(O)c(F)c3)ncc2N(C)C(=O)C1C (stereo not drawn) [BI-D1870]
phosphorylated MDM2 in senescent fibroblasts [1, 8]: reduced | ribosomal S6 phosphorylation in senescent fibroblasts [1, 8]: reduced | ribosomal S6 phosphorylation in cells exposed to NRTIs [2, 9]: greatest impact

O=C1Nc2ccc(I)cc2/C1=C/c1cc(Br)c(O)c(Br)c1 [GW5047]
ribosomal S6 phosphorylation in cells exposed to NRTIs [2, 9]: some decrease

COC1=C(OC)C(=O)C(CCCCCCCCCC[P+](c2ccccc2)(c2ccccc2)c2ccccc2)=C(C)C1=O [Mito-Q]
mitochondrial ROS following exposure to NRTIs [3]: ameliorated | mitochondrial ROS following exposure to NRTIs ([3]; listed as mito-Q): lower level | increase in senescence-associated proteins (p53, p21, p16) following NRTI exposure [4]: ameliorated | NRTI-induced increase in basal respiration, ATP-linked respiration and proton leak [5]: partially alleviated | maximal respiration [5]: less affected | percentage of cells positive for SA-β-gal staining [6]: reduced | MDM2 phosphorylation in cells exposed to NRTIs [2, 9]: reduced | ribosomal S6 phosphorylation in cells exposed to NRTIs [2, 9]: reduced

CCc1cncnc1N1CCN(Cc2nc3ccc(C(F)(F)F)cc3[nH]2)CC1 [PF-4708671]
MDM2 phosphorylation in cells exposed to NRTIs [2, 9]: inhibited | ribosomal S6 phosphorylation in cells exposed to NRTIs [2, 9]: inhibited

C[S+]([O-])c1ccc(-c2nc(-c3ccncc3)c(-c3ccc(F)cc3)[nH]2)cc1 (stereo not drawn) [SB-203580]
MDM2 phosphorylation in cells exposed to NRTIs [2]: no effect | ribosomal S6 phosphorylation in cells exposed to NRTIs [2]: no effect

N#CC(=C(/N)Sc1ccccc1N)/C(C#N)=C(\N)Sc1ccccc1N [U0126]
ribosomal S6 phosphorylation in cells exposed to NRTIs [1]: some decrease

COc1cc(C(C)=O)ccc1O [apocyanin]
ribosomal S6 phosphorylation in cells exposed to NRTIs [2, 9]: did not prevent the increase

CC[n+]1c(-c2ccccc2)c2cc(N)ccc2c2ccc(N)cc21 [ethidium bromide]
mitochondrial network [7]: destroyed

OO [hydrogen peroxide]
ribosomal S6 and MDM2 phosphorylation at the lower concentrations ([1]; serum-free 48 hours, exposure 2 hours): increased | concentration of maximal activation of ribosomal S6 and MDM2 phosphorylation [1, 10]: 50 µM | concentrations at which ribosomal S6 and MDM2 phosphorylation are inhibited [1, 10]: above 100 μM

C=C(C)[C@H]1Cc2c(ccc3c2O[C@@H]2COc4cc(OC)c(OC)cc4[C@@H]2C3=O)O1 [rotenone]
concentration of sharp inhibition of S6 phosphorylation ([1]; serum deprived cardiac fibroblasts, 16 hours): 50 nM | S6 phosphorylation at nanomolar concentrations ([1]; serum deprived cardiac fibroblasts, 16 hours, 1 to 50 nM): increased
